Measured values as given in ChEMBL document CHEMBL1152493, “CoMFA and docking studies of 2-phenylindole derivatives with anticancer activity” (Eur J Med Chem, 2009).

Test system: MDA-MB-231
Test: Cytotoxicity against human MDA-MB-231 cells
Format: functional, cell-based

Compound | IC50 (read-out: IC50) [µM] | IC50 (read-out: pIC50 (converted)) [µM]
COc1ccc2c(C=O)c(-c3ccccc3)[nH]c2c1 | 0.24 | 0.24
COc1ccc(-c2[nH]c3cc(OC)c(OC)cc3c2C=O)cc1 | 0.22 | 0.22
CCC(C)c1ccc2[nH]c(-c3ccc(OC)cc3)c(C=O)c2c1 (stereo unspecified) | 0.072 | 0.0719
